Source: ChEMBL document CHEMBL1201862, “PubChem BioAssay data set” (2004)
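How tested: cells in 96-well plates exposed to compound for 48 hours at five concentrations. GI50 = concentration required for 50% inhibition of growth.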 Active and inactive are the calls of the source. No stated cut-off is given here; in the data, active = GI50 up to about 1.1 µM and inactive = higher.

Experiments:
Assay in all cases: inhibition of tumour cell growth, NCI panel, 48 h
[1] = test system: 786-0
[2] = test system: A498
[3] = test system: A549
[4] = test system: ACHN
[5] = test system: BT-549
[6] = test system: CAKI-1
[7] = test system: CCRF-CEM
[8] = test system: COLO 205
[9] = test system: DU-145
[10] = test system: EKVX
[11] = test system: HCC 2998
[12] = test system: HCT-116
[13] = test system: HCT-15
[14] = test system: HL-60
[15] = test system: HOP-62
[16] = test system: HOP-92
[17] = test system: HT-29
[18] = test system: Hs-578T
[19] = test system: IGROV-1
[20] = test system: K562
[21] = test system: KM12
[22] = test system: LOX IMVI
[23] = test system: M14
[24] = test system: MCF7
[25] = test system: MDA-MB-231
[26] = test system: MDA-MB-435
[27] = test system: MDA-N
[28] = test system: MOLT-4
[29] = test system: Malme-3M
[30] = test system: NCI-H226
[31] = test system: NCI-H23
[32] = test system: NCI-H460
[33] = test system: NCI-H522
[34] = test system: NCI/ADR-RES
[35] = test system: OVCAR-3
[36] = test system: OVCAR-4
[37] = test system: OVCAR-5
[38] = test system: OVCAR-8
[39] = test system: PC-3
[40] = test system: RPMI-8226
[41] = test system: RXF 393
[42] = test system: SF-268
[43] = test system: SF-295
[44] = test system: SF-539
[45] = test system: SK-MEL-2
[46] = test system: SK-MEL-5
[47] = test system: SK-OV-3
[48] = test system: SN12C
[49] = test system: SNB-19
[50] = test system: SNB-75
[51] = test system: SR
[52] = test system: SW-620
[53] = test system: T47D
[54] = test system: TK-10
[55] = test system: U-251
[56] = test system: UACC-257
[57] = test system: UACC-62
[58] = test system: UO-31
[59] = test system: SK-MEL-28

CCc1nnc2sc(-c3ccc(-c4ccccc4[N+](=O)[O-])o3)nn12
GI50 [1]: 54.8 µM (inactive)
GI50 [2]: 54 µM (inactive)
GI50 [3]: 36.5 µM (inactive)
GI50 [4]: 62.2 µM (inactive)
GI50 [5]: 36.6 µM (inactive)
GI50 [6]: 66.4 µM (inactive)
GI50 [7]: 26.9 µM (inactive)
GI50 [8]: 34.9 µM (inactive)
GI50 [9]: 66.2 µM (inactive)
GI50 [10]: 21.6 µM (inactive)
GI50 [11]: 50.1 µM (inactive)
GI50 [12]: 37.3 µM (inactive)
GI50 [13]: 30.1 µM
GI50 [14]: 24 µM (inactive)
GI50 [15]: 87.9 µM (inactive)
GI50 [16]: 84.7 µM (inactive)
GI50 [17]: 35.6 µM (inactive)
GI50 [18]: 54.3 µM (inactive)
GI50 [19]: 47.9 µM (inactive)
GI50 [20]: 27.7 µM (inactive)
GI50 [21]: 30.8 µM (inactive)
GI50 [22]: 36.2 µM (inactive)
GI50 [23]: 37.6 µM (inactive)
GI50 [24]: 19.7 µM (inactive)
GI50 [25]: 53.1 µM (inactive)
GI50 [26]: 20.3 µM (inactive)
GI50 [27]: 19.9 µM (inactive)
GI50 [28]: 19.5 µM (inactive)
GI50 [29]: > 100 µM (inactive)
GI50 [30]: 14.4 µM (inactive)
GI50 [31]: 32.9 µM (inactive)
GI50 [32]: 31 µM (inactive)
GI50 [33]: 37.4 µM (inactive)
GI50 [34]: 27 µM (inactive)
GI50 [35]: 32.1 µM (inactive)
GI50 [36]: 53.1 µM (inactive)
GI50 [37]: 62.2 µM (inactive)
GI50 [38]: 50.7 µM (inactive)
GI50 [39]: 42.9 µM (inactive)
GI50 [40]: 20.7 µM (inactive)
GI50 [41]: 57.9 µM (inactive)
GI50 [42]: 49.1 µM (inactive)
GI50 [43]: 32.6 µM (inactive)
GI50 [44]: 29.7 µM (inactive)
GI50 [45]: 28.1 µM (inactive)
GI50 [46]: 27.7 µM (inactive)
GI50 [47]: 40 µM (inactive)
GI50 [48]: 53 µM (inactive)
GI50 [49]: 75.3 µM (inactive)
GI50 [50]: > 100 µM (inactive)
GI50 [51]: 20.1 µM (inactive)
GI50 [52]: 34 µM (inactive)
GI50 [53]: 36.3 µM (inactive)
GI50 [54]: 75.7 µM (inactive)
GI50 [55]: 40.6 µM (inactive)
GI50 [56]: 61.7 µM (inactive)
GI50 [57]: 45.7 µM (inactive)
GI50 [58]: 41.9 µM (inactive)

C/C1=C\CC[C@@]2(C)O[C@@H]2C[C@@H]2[C@H](C/C(C)=C/CC1)OC(=O)[C@]21CO1
GI50 [1]: > 100 µM (inactive)
GI50 [2]: > 100 µM (inactive)
GI50 [3]: 65.2 µM (inactive)
GI50 [4]: > 100 µM (inactive)
GI50 [5]: > 100 µM (inactive)
GI50 [6]: > 100 µM (inactive)
GI50 [7]: 46.2 µM (inactive)
GI50 [8]: > 100 µM (inactive)
GI50 [9]: > 100 µM (inactive)
GI50 [10]: > 100 µM (inactive)
GI50 [11]: 78.9 µM (inactive)
GI50 [12]: 41.5 µM (inactive)
GI50 [13]: > 100 µM
GI50 [14]: > 100 µM (inactive)
GI50 [15]: > 100 µM (inactive)
GI50 [16]: > 100 µM (inactive)
GI50 [17]: 69.3 µM (inactive)
GI50 [18]: > 100 µM (inactive)
GI50 [19]: 42.2 µM (inactive)
GI50 [20]: 34.4 µM (inactive)
GI50 [21]: 28.8 µM (inactive)
GI50 [22]: 19.6 µM (inactive)
GI50 [23]: > 100 µM (inactive)
GI50 [24]: 41.5 µM (inactive)
GI50 [25]: > 100 µM (inactive)
GI50 [26]: 65.8 µM (inactive)
GI50 [27]: 61.1 µM (inactive)
GI50 [28]: 22 µM (inactive)
GI50 [29]: > 100 µM (inactive)
GI50 [30]: > 100 µM (inactive)
GI50 [31]: > 100 µM (inactive)
GI50 [32]: 20.7 µM (inactive)
GI50 [33]: 32.5 µM (inactive)
GI50 [34]: > 100 µM (inactive)
GI50 [35]: > 100 µM (inactive)
GI50 [36]: > 100 µM (inactive)
GI50 [37]: > 100 µM (inactive)
GI50 [38]: > 100 µM (inactive)
GI50 [39]: > 100 µM (inactive)
GI50 [40]: 51.5 µM (inactive)
GI50 [41]: > 100 µM (inactive)
GI50 [42]: > 100 µM (inactive)
GI50 [43]: > 100 µM (inactive)
GI50 [59]: > 100 µM (inactive)
GI50 [45]: > 100 µM (inactive)
GI50 [46]: > 100 µM (inactive)
GI50 [47]: > 100 µM (inactive)
GI50 [48]: 74.5 µM (inactive)
GI50 [49]: > 100 µM (inactive)
GI50 [50]: > 100 µM (inactive)
GI50 [51]: 36.7 µM (inactive)
GI50 [52]: 68.7 µM (inactive)
GI50 [53]: > 100 µM (inactive)
GI50 [54]: > 100 µM (inactive)
GI50 [55]: 63.8 µM (inactive)
GI50 [56]: > 100 µM (inactive)
GI50 [57]: 75.5 µM (inactive)
GI50 [58]: > 100 µM (inactive)

CC(C)/C(Cl)=N/OC(NC(=O)Nc1ccc(Cl)c(Cl)c1)(C(F)(F)F)C(F)(F)F
GI50 [1]: 8.77 µM (inactive)
GI50 [2]: 18.2 µM (inactive)
GI50 [3]: 23.2 µM (inactive)
GI50 [4]: 12.2 µM (inactive)
GI50 [5]: 11.5 µM (inactive)
GI50 [6]: 2.16 µM (inactive)
GI50 [7]: 2.16 µM (inactive)
GI50 [8]: 3.17 µM (inactive)
GI50 [9]: 16.7 µM (inactive)
GI50 [10]: 19.4 µM (inactive)
GI50 [11]: 20.1 µM (inactive)
GI50 [12]: 7.36 µM (inactive)
GI50 [13]: 13.2 µM
GI50 [14]: 2.54 µM (inactive)
GI50 [15]: 21.6 µM (inactive)
GI50 [16]: 10.4 µM (inactive)
GI50 [17]: 15.4 µM (inactive)
GI50 [18]: 28.6 µM (inactive)
GI50 [19]: 16.2 µM (inactive)
GI50 [20]: 3.05 µM (inactive)
GI50 [21]: 18.2 µM (inactive)
GI50 [22]: 4.51 µM (inactive)
GI50 [23]: 5.65 µM (inactive)
GI50 [24]: 19.4 µM (inactive)
GI50 [25]: 15.5 µM (inactive)
GI50 [26]: 16.4 µM (inactive)
GI50 [27]: 16.4 µM (inactive)
GI50 [28]: 3.2 µM (inactive)
GI50 [29]: 2.37 µM (inactive)
GI50 [30]: 19.9 µM (inactive)
GI50 [31]: 17.8 µM (inactive)
GI50 [32]: 24.5 µM (inactive)
GI50 [33]: 1.69 µM (inactive)
GI50 [34]: 14.6 µM (inactive)
GI50 [35]: 5.9 µM (inactive)
GI50 [36]: 13 µM (inactive)
GI50 [37]: 19.7 µM (inactive)
GI50 [38]: 17.7 µM (inactive)
GI50 [39]: 13.6 µM (inactive)
GI50 [40]: 1.72 µM (inactive)
GI50 [41]: 3.42 µM (inactive)
GI50 [42]: 18.2 µM (inactive)
GI50 [43]: 19.8 µM (inactive)
GI50 [44]: 17.4 µM (inactive)
GI50 [59]: 19.2 µM (inactive)
GI50 [46]: 15.8 µM (inactive)
GI50 [47]: 18.2 µM (inactive)
GI50 [48]: 11 µM (inactive)
GI50 [49]: 20.2 µM (inactive)
GI50 [50]: 16.9 µM (inactive)
GI50 [51]: 3.56 µM (inactive)
GI50 [52]: 1.81 µM (inactive)
GI50 [53]: 7.64 µM (inactive)
GI50 [54]: 17.4 µM (inactive)
GI50 [55]: 17.3 µM (inactive)
GI50 [56]: 13.2 µM (inactive)
GI50 [57]: 16 µM (inactive)
GI50 [58]: 17.3 µM (inactive)

COC(=O)c1cc(-c2ccc3ccccc3c2)nc(O)c1C#N
GI50 [1]: > 100 µM (inactive)
GI50 [2]: > 100 µM (inactive)
GI50 [3]: > 100 µM (inactive)
GI50 [4]: > 100 µM (inactive)
GI50 [5]: > 100 µM (inactive)
GI50 [6]: > 100 µM (inactive)
GI50 [8]: > 100 µM (inactive)
GI50 [9]: > 100 µM (inactive)
GI50 [10]: 71.4 µM (inactive)
GI50 [11]: 17.1 µM (inactive)
GI50 [12]: > 100 µM (inactive)
GI50 [13]: > 100 µM
GI50 [14]: 20.3 µM (inactive)
GI50 [15]: > 100 µM (inactive)
GI50 [16]: > 100 µM (inactive)
GI50 [17]: > 100 µM (inactive)
GI50 [18]: > 100 µM (inactive)
GI50 [19]: > 100 µM (inactive)
GI50 [21]: > 100 µM (inactive)
GI50 [22]: > 100 µM (inactive)
GI50 [23]: > 100 µM (inactive)
GI50 [24]: > 100 µM (inactive)
GI50 [25]: > 100 µM (inactive)
GI50 [26]: > 100 µM (inactive)
GI50 [27]: > 100 µM (inactive)
GI50 [29]: > 100 µM (inactive)
GI50 [30]: > 100 µM (inactive)
GI50 [31]: > 100 µM (inactive)
GI50 [32]: > 100 µM (inactive)
GI50 [33]: > 100 µM (inactive)
GI50 [34]: > 100 µM (inactive)
GI50 [35]: > 100 µM (inactive)
GI50 [36]: > 100 µM (inactive)
GI50 [37]: > 100 µM (inactive)
GI50 [38]: > 100 µM (inactive)
GI50 [39]: > 100 µM (inactive)
GI50 [40]: > 100 µM (inactive)
GI50 [41]: > 100 µM (inactive)
GI50 [42]: > 100 µM (inactive)
GI50 [43]: > 100 µM (inactive)
GI50 [44]: > 100 µM (inactive)
GI50 [59]: > 100 µM (inactive)
GI50 [45]: > 100 µM (inactive)
GI50 [46]: > 100 µM (inactive)
GI50 [47]: > 100 µM (inactive)
GI50 [48]: > 100 µM (inactive)
GI50 [49]: > 100 µM (inactive)
GI50 [50]: > 100 µM (inactive)
GI50 [51]: > 100 µM (inactive)
GI50 [52]: > 100 µM (inactive)
GI50 [53]: > 100 µM (inactive)
GI50 [54]: > 100 µM (inactive)
GI50 [55]: > 100 µM (inactive)
GI50 [56]: > 100 µM (inactive)
GI50 [57]: > 100 µM (inactive)
GI50 [58]: > 100 µM (inactive)
